From patent publication US20070128217A1 (priority 2003, published 2007) come the findings set out here.

Assay [1] relates to rabbit serum obtained by immunizing a rabbit with the SARS-CoV strain Frankfurt 1. The class given is binding. Further details: Binding of a rabbit serum to linear peptides / Binding of a rabbit serum to looped peptides / Rabbit serum linear peptides / Rabbit serum looped peptides / Binding of a rabbit serum to linear peptides of protein N of SARS-CoV Urbani (Rabbit serum linear peptides) / Binding of a rabbit serum to looped/cyclic peptides of protein N of SARS-CoV Urbani (Rabbit serum looped peptides): unit not given here.

The subject of assay [2] is control sera (pooled serum of ten healthy LUMC hospital workers; commercial negative donor pooled serum from the Dutch bloodbank). The class given is binding, human. More on the design: Binding of Control serum LUMC to linear peptides / Binding of Control serum Blood-bank to linear peptides / Binding of Control serum LUMC to looped peptides / Binding of Control Serum Blood-Bank to Looped peptides / Binding of Control serum LUMC to linear peptides of the protein M of SARS-CoV Urbani / Binding of Control serum Blood-bank to linear peptides of the protein M of SARS-CoV Urbani / Binding of Control serum LUMC to looped peptides of the protein M of SARS-CoV Urbani / Binding of Control Serum Blood-Bank to Looped peptides of the protein M of SARS-CoV Urbani: unit not given here.

In assay [3] the test system is antibodies in sera from SARS patients (sera 1a, 1b, 2, 6, 37, 62, London, SARS-yellow, SARS-green). The class given is binding, human. More on the design: Binding of serum 6 to linear peptides of protein X1 of SARS-CoV Urbani / Binding of serum 37 to linear peptides of protein X1 of SARS-CoV Urbani / Binding of serum 6 to looped/cyclic peptide (PEPSCAN-ELISA) / Binding of serum 37 to looped/cyclic peptide (PEPSCAN-ELISA) / Binding of serum 37 to looped/cyclic peptides of protein X1 of SARS-CoV Urbani / Binding of serum 6 to linear peptides of protein X2 / Binding of serum 37 to linear peptides of protein X2 / Binding of serum 37 to looped/cyclic peptides of protein X2 of SARS-CoV Urbani / Binding of serum 6 to linear peptides of protein M of SARS-CoV Urbani / Binding of serum 37 to linear peptides of protein M of SARS-CoV Urbani / Binding of serum 6 to looped/cyclic peptides of protein M of SARS-CoV Urbani / Binding of serum 37 to looped/cyclic peptides of protein M of SARS-CoV Urbani / Binding of serum 6 to linear peptides of protein X3 of SARS-CoV Urbani / Binding of serum 37 to linear peptides of protein X3 of SARS-CoV Urbani / Binding of serum 37 to looped/cyclic peptides of protein X3 of SARS-CoV Urbani / Binding of serum 6 to linear peptides of protein X4 of SARS-CoV Urbani / Binding of serum 37 to linear peptides of protein X4 of SARS-CoV Urbani / Binding of serum 37 to looped/cyclic peptides of protein X4 of SARS-CoV Urbani / Binding of serum 6 to linear peptides of protein X5 of SARS-CoV Urbani / Binding of serum 37 to linear peptides of protein X5 of SARS-CoV Urbani / Binding of serum 37 to looped/cyclic peptides of protein X5 of SARS-CoV Urbani / Binding of serum 6 to linear peptides of protein N of SARS-CoV Urbani / Binding of serum 37 to linear peptides of protein N of SARS-CoV Urbani / Binding of serum 6 to linear peptide (PEPSCAN-ELISA) / Binding of serum 1a to looped/cyclic peptides of protein N of SARS-CoV Urbani / Binding of serum 1b to looped/cyclic peptides of protein N of SARS-CoV Urbani / Binding of serum 2 to looped/cyclic peptides of protein N of SARS-CoV Urbani / Binding of serum 6 to looped/cyclic peptides of protein N of SARS-CoV Urbani / Binding of serum 37 to looped/cyclic peptides of protein N of SARS-CoV Urbani / Binding of serum 62 to looped/cyclic peptides of protein N of SARS-CoV Urbani / Binding of serum London to looped/cyclic peptides of protein N of SARS-CoV Urbani / Binding of serum SARS-green to looped/cyclic peptides of protein N of SARS-CoV Urbani: unit not given here.

YKGFQFICNLLLLFV: in assay [1], the “Binding of a rabbit serum to linear peptides” value is recorded as 0.3 and the “Binding of a rabbit serum to looped peptides” value is 0.0. In assay [2], the “Binding of Control Serum Blood-Bank to Looped peptides” value came out at 0.4, the “Binding of Control serum Blood-bank to linear peptides” value worked out at 1.0, the “Binding of Control serum LUMC to linear peptides” value came to 0.8 and the “Binding of Control serum LUMC to looped peptides” value is recorded as 0.4. For the same sequence, in assay [3], the “Binding of serum 1a to linear peptides of protein X1 of SARS-CoV Urbani” value amounted to 0.9, the “Binding of serum 1a to looped/cyclic peptide (PEPSCAN-ELISA)” value is 0.3, the “Binding of serum 1b to linear peptides of protein X1 of SARS-CoV Urbani” value was determined as 0.8 and the “Binding of serum 1b to looped/cyclic peptide (PEPSCAN-ELISA)” value turned out to be 0.0. In assay [3], the “Binding of serum 2 to linear peptides of protein X1 of SARS-CoV Urbani” value stood at 0.9, the “Binding of serum 2 to looped/cyclic peptide (PEPSCAN-ELISA)” value was 0.0, the “Binding of serum 6 to linear peptides of protein X1 of SARS-CoV Urbani” value is 0.9 and the “Binding of serum 6 to looped/cyclic peptide (PEPSCAN-ELISA)” value worked out at 0.3. In addition, in assay [3], the “Binding of serum 37 to linear peptides of protein X1 of SARS-CoV Urbani” value was 0.7, the “Binding of serum 37 to looped/cyclic peptide (PEPSCAN-ELISA)” value is recorded as 0.2, the “Binding of serum 62 to linear peptides of protein X1 of SARS-CoV Urbani” value stood at 1.0 and the “Binding of serum 62 to looped/cyclic peptide (PEPSCAN-ELISA)” value came out at 0.3. Also, in assay [3], the “Binding of serum London to linear peptides of protein X1 of SARS-CoV Urbani” value was determined as 0.8, the “Binding of serum London to looped/cyclic peptide (PEPSCAN-ELISA)” value is recorded as 0.2, the “Binding of serum SARS-green to linear peptides of protein X1 of SARS-CoV Urbani” value worked out at 0.4 and the “Binding of serum SARS-green to looped/cyclic peptide (PEPSCAN-ELISA)” value was found to be 0.3. Besides, in assay [3], the “Binding of serum SARS-yellow to linear peptides of protein X1 of SARS-CoV Urbani” value is recorded as 0.6 and the “Binding of serum SARS-yellow to looped/cyclic peptide (PEPSCAN-ELISA)” value is recorded as 0.0.
For the sequence YLYALIYFLQCINAC, in assay [1], the “Binding of a rabbit serum to linear peptides” value came out at 0.1 and the “Binding of a rabbit serum to looped peptides” value is given as 0.4. In assay [2], the “Binding of Control Serum Blood-Bank to Looped peptides” value is 0.5, the “Binding of Control serum Blood-bank to linear peptides” value stood at 0.5, the “Binding of Control serum LUMC to linear peptides” value is 0.6 and the “Binding of Control serum LUMC to looped peptides” value came to 0.5. For the same sequence, in assay [3], the “Binding of serum 1a to linear peptides of protein X1 of SARS-CoV Urbani” value is 0.7, the “Binding of serum 1a to looped/cyclic peptide (PEPSCAN-ELISA)” value was 0.4, the “Binding of serum 1b to linear peptides of protein X1 of SARS-CoV Urbani” value amounted to 0.5 and the “Binding of serum 1b to looped/cyclic peptide (PEPSCAN-ELISA)” value turned out to be 0.2. In addition, in assay [3], the “Binding of serum 2 to linear peptides of protein X1 of SARS-CoV Urbani” value came to 0.5, the “Binding of serum 2 to looped/cyclic peptide (PEPSCAN-ELISA)” value amounted to 0.3, the “Binding of serum 6 to linear peptides of protein X1 of SARS-CoV Urbani” value worked out at 0.5 and the “Binding of serum 6 to looped/cyclic peptide (PEPSCAN-ELISA)” value turned out to be 0.2. In assay [3], the “Binding of serum 37 to linear peptides of protein X1 of SARS-CoV Urbani” value came to 0.6, the “Binding of serum 37 to looped/cyclic peptide (PEPSCAN-ELISA)” value is listed as 0.4, the “Binding of serum 62 to linear peptides of protein X1 of SARS-CoV Urbani” value is 0.5 and the “Binding of serum 62 to looped/cyclic peptide (PEPSCAN-ELISA)” value stood at 0.4. In assay [3], the “Binding of serum London to linear peptides of protein X1 of SARS-CoV Urbani” value amounted to 0.4, the “Binding of serum London to looped/cyclic peptide (PEPSCAN-ELISA)” value turned out to be 0.2, the “Binding of serum SARS-green to linear peptides of protein X1 of SARS-CoV Urbani” value is 0.2 and the “Binding of serum SARS-green to looped/cyclic peptide (PEPSCAN-ELISA)” value came out at 0.1. For the same sequence, in assay [3], the “Binding of serum SARS-yellow to linear peptides of protein X1 of SARS-CoV Urbani” value came out at 0.3 and the “Binding of serum SARS-yellow to looped/cyclic peptide (PEPSCAN-ELISA)” value was determined as 0.2.
For YMAISPKFTTSLSLH, in assay [1], the “Binding of a rabbit serum to linear peptides” value came to 0.3 and the “Binding of a rabbit serum to looped peptides” value amounted to 0.5. Further, in assay [2], the “Binding of Control Serum Blood-Bank to Looped peptides” value stood at 0.7, the “Binding of Control serum Blood-bank to linear peptides” value stood at 0.7, the “Binding of Control serum LUMC to linear peptides” value was determined as 0.4 and the “Binding of Control serum LUMC to looped peptides” value turned out to be 0.7. For the same sequence, in assay [3], the “Binding of serum 1a to linear peptides of protein X2” value is given as 0.7, the “Binding of serum 1a to looped/cyclic peptides of protein X2 of SARS-CoV Urbani” value is reported as 0.6, the “Binding of serum 1b to linear peptides of protein X2” value came out at 0.6 and the “Binding of serum 1b to looped/cyclic peptides of protein X2 of SARS-CoV Urbani” value is given as 0.6. Further, in assay [3], the “Binding of serum 2 to linear peptides of protein X2” value stood at 0.4, the “Binding of serum 2 to looped/cyclic peptides of protein X2 of SARS-CoV Urbani” value stood at 0.4, the “Binding of serum 6 to linear peptides of protein X2” value was 0.4 and the “Binding of serum 6 to looped/cyclic peptides of protein X2 of SARS-CoV Urbani” value came to 0.5. In addition, in assay [3], the “Binding of serum 37 to linear peptides of protein X2” value is recorded as 0.6, the “Binding of serum 37 to looped/cyclic peptides of protein X2 of SARS-CoV Urbani” value is 0.5, the “Binding of serum 62 to linear peptides of protein X2” value was 0.6 and the “Binding of serum 62 to looped/cyclic peptides of protein X2 of SARS-CoV Urbani” value worked out at 0.6. For the same sequence, in assay [3], the “Binding of serum London to linear peptides of protein X2” value is on record as 0.4, the “Binding of serum London to looped/cyclic peptides of protein X2 of SARS-CoV Urbani” value is recorded as 0.4, the “Binding of serum SARS-green to linear peptides of protein X2” value came out at 0.5 and the “Binding of serum SARS-green to looped/cyclic peptides of protein X2 of SARS-CoV Urbani” value came out at 0.4. Further, in assay [3], the “Binding of serum SARS-yellow to linear peptides of protein X2” value was 0.6 and the “Binding of serum SARS-yellow to looped/cyclic peptides of protein X2 of SARS-CoV Urbani” value was determined as 0.4.
In the case of YNRYRIGNYKLNTDH, in assay [1], the “Rabbit serum linear peptides” value is listed as 0.3 and the “Rabbit serum looped peptides” value is 0.5. For the same sequence, in assay [2], the “Binding of Control Serum Blood-Bank to Looped peptides of the protein M of SARS-CoV Urbani” value was determined as 0.8, the “Binding of Control serum Blood-bank to linear peptides of the protein M of SARS-CoV Urbani” value worked out at 0.5, the “Binding of Control serum LUMC to linear peptides of the protein M of SARS-CoV Urbani” value worked out at 0.6 and the “Binding of Control serum LUMC to looped peptides of the protein M of SARS-CoV Urbani” value is recorded as 0.9. Also, in assay [3], the “Binding of serum 1a to linear peptides of protein M of SARS-CoV Urbani” value is 0.7, the “Binding of serum 1a to looped/cyclic peptides of protein M of SARS-CoV Urbani” value turned out to be 0.8, the “Binding of serum 1b to linear peptides of protein M of SARS-CoV Urbani” value was 0.6 and the “Binding of serum 1b to looped/cyclic peptides of protein M of SARS-CoV Urbani” value is 0.7. Besides, in assay [3], the “Binding of serum 2 to linear peptides of protein M of SARS-CoV Urbani” value is recorded as 0.4, the “Binding of serum 2 to looped/cyclic peptides of protein M of SARS-CoV Urbani” value amounted to 0.7, the “Binding of serum 6 to linear peptides of protein M of SARS-CoV Urbani” value worked out at 0.5 and the “Binding of serum 6 to looped/cyclic peptides of protein M of SARS-CoV Urbani” value was 1.1. Further, in assay [3], the “Binding of serum 37 to linear peptides of protein M of SARS-CoV Urbani” value worked out at 0.5, the “Binding of serum 37 to looped/cyclic peptides of protein M of SARS-CoV Urbani” value was found to be 0.5, the “Binding of serum 62 to linear peptides of protein M of SARS-CoV Urbani” value is on record as 0.4 and the “Binding of serum 62 to looped/cyclic peptides of protein M of SARS-CoV Urbani” value was found to be 0.6. In addition, in assay [3], the “Binding of serum London to linear peptides of protein M of SARS-CoV Urbani” value came out at 0.5, the “Binding of serum London to looped/cyclic peptides of protein M of SARS-CoV Urbani” value was determined as 0.6, the “Binding of serum SARS-green to linear peptides of protein M of SARS-CoV Urbani” value is 0.4 and the “Binding of serum SARS-green to looped/cyclic peptides of protein M of SARS-CoV Urbani” value is listed as 0.3. For the same sequence, in assay [3], the “Binding of serum SARS-yellow to linear peptides of protein M of SARS-CoV Urbani” value was 0.1 and the “Binding of serum SARS-yellow to looped/cyclic peptides of protein M of SARS-CoV Urbani” value stood at 0.7.
